Test results published in the supplement of paper PMC10627819.

Experiments:
S. aureus DSM 20231 = assay: Bliss interaction score (quartile over a dose matrix) (fitness difference); higher = more antagonism (negative = synergy)
Procedure, shortened: (§1)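 The Bliss score is observed minus expected fitness, where expected fitness is the product of the single-drug fitness values inferred from the combination data. Fitness is the OD595 at the onset of stationary phase over the plate's robust no-drug mean, capped at 1. Scores are summarised by quartiles over technical, biological and donor/recipient replicates.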

S. pneumoniae D39V [1] = assay: as above
Procedure, shortened: as §1

S. aureus Newman = assay: as above
Procedure, shortened: as §1

B. subtilis 168 = assay: as above
Procedure, shortened: as §1

S. pneumoniae D39V [2] = assay: fitness (endpoint OD595 vs no drug) (fraction); higher = more growth
Procedure, shortened: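 At 37 °C, bacteria in TSB, LB Lennox or CY were grown in 384-well plates from a starting OD595 of 0.01. OD595 was measured every 30 min for 14 h, with the first reading used as background. Fitness is the optical density at the switch to stationary phase as a fraction of the robust mean of no-drug control wells, capped at 1.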
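Wherever Bliss interaction score (quartile over a dose matrix) is given: first quartile when negative (synergy) and third quartile when positive (antagonism).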
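Wherever fitness (endpoint OD595 vs no drug) is given: OD595 on entry to stationary phase over no-drug wells; at most 1.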

CC[C@H]1OC(=O)[C@H](C)[C@@H](O[C@H]2C[C@@](C)(OC)[C@@H](O)[C@H](C)O2)[C@H](C)[C@@H](O[C@@H]2O[C@H](C)C[C@H](N(C)C)[C@H]2O)[C@](C)(OC)C[C@@H](C)C(=O)[C@H](C)[C@@H](O)[C@]1(C)O [Clarithromycin] + O=C1CN(/N=C/c2ccc([N+](=O)[O-])o2)C(=O)N1 [Nitrofurantoin]
Details	Bliss interaction score
B. subtilis 168	-0.0776
S. aureus DSM 20231	-0.04
S. aureus Newman	-0.117
S. pneumoniae D39V [1]	-0.0986

fitness, S. pneumoniae D39V [2], one replicate
Details	first compound 0.007812 µg/mL	first compound 0.01562 µg/mL	first compound 0.03125 µg/mL	first compound 0.0625 µg/mL	first compound 0.125 µg/mL	first compound 0.25 µg/mL
partner 2 µg/mL	0.879	0.802	0.627	–	–	–
partner 4 µg/mL	0.862	0.788	0.643	–	–	–
partner 5.14 µg/mL	–	–	–	0.402	0.214	0.146
partner 8 µg/mL	0.744	0.678	0.556	–	–	–

fitness, S. pneumoniae D39V [2]
Details	first compound 0.0625 µg/mL	first compound 0.07 µg/mL	first compound 0.125 µg/mL	first compound 0.14 µg/mL	first compound 0.25 µg/mL	first compound 0.28 µg/mL
partner 1.285 µg/mL	0.636	–	0.263	–	0.104	–
partner 2 µg/mL	–	0.0417	–	0.0458	–	0.0401
partner 2.57 µg/mL	0.59	–	0.199	–	0.0984	–
partner 4 µg/mL	–	0.0482	–	0.0382	–	0.0171
partner 8 µg/mL	–	0.0337	–	0.0552	–	0.0141

CC[C@H]1OC(=O)[C@H](C)[C@@H](O[C@H]2C[C@@](C)(OC)[C@@H](O)[C@H](C)O2)[C@H](C)[C@@H](O[C@@H]2O[C@H](C)C[C@H](N(C)C)[C@H]2O)[C@](C)(OC)C[C@@H](C)C(=O)[C@H](C)[C@@H](O)[C@]1(C)O [Clarithromycin] + O=C(O[C@@H]1Cc2c(O)cc(O)cc2O[C@@H]1c1cc(O)c(O)c(O)c1)c1cc(O)c(O)c(O)c1 [EGCG]
Details	Bliss interaction score
B. subtilis 168	0.0404
S. aureus DSM 20231	0.109
S. aureus Newman	0.132
S. pneumoniae D39V [1]	-0.0473

fitness, S. pneumoniae D39V [2], one replicate
Details	first compound 0.007812 µg/mL	first compound 0.01562 µg/mL	first compound 0.03125 µg/mL
partner 12.5 µg/mL	0.808	0.8	0.635
partner 25 µg/mL	0.847	0.762	0.609
partner 50 µg/mL	0.827	0.77	0.614

fitness, S. pneumoniae D39V [2]
Details	first compound 0.0625 µg/mL	first compound 0.07 µg/mL	first compound 0.125 µg/mL	first compound 0.14 µg/mL	first compound 0.25 µg/mL	first compound 0.28 µg/mL
partner 12.5 µg/mL	0.457	0.123	0.241	0.0422	0.0839	0.0515
partner 25 µg/mL	0.493	0.115	0.25	0.0716	0.0874	0.0518
partner 50 µg/mL	0.383	0.144	0.373	0.0769	0.122	0.0507

CCC[C@@H]1C[C@@H](C(=O)N[C@@H]([C@H]2O[C@H](SC)[C@H](O)[C@@H](O)[C@H]2O)[C@H](C)Cl)N(C)C1 [Clindamycin] + CO[C@H]1/C=C/O[C@@]2(C)Oc3c(C)c(O)c4c(O)c(c(/C=N/N5CCN(C)CC5)c(O)c4c3C2=O)NC(=O)/C(C)=C\C=C\[C@H](C)[C@H](O)[C@@H](C)[C@@H](O)[C@@H](C)[C@H](OC(C)=O)[C@@H]1C [Rifampicin]
Details	Bliss interaction score
B. subtilis 168	-0.223
S. aureus DSM 20231	0.027
S. aureus Newman	0.0465
S. pneumoniae D39V [1]	-0.077

fitness, S. pneumoniae D39V [2]
Details	first compound 0.0125 µg/mL	first compound 0.015 µg/mL	first compound 0.025 µg/mL	first compound 0.03 µg/mL	first compound 0.05 µg/mL	first compound 0.06 µg/mL
partner 0.025 µg/mL	0.795	–	0.539	–	0.273	–
partner 0.05 µg/mL	0.811	–	0.523	–	0.215	0.226
partner 0.1 µg/mL	0.341	0.267	0.223	0.212	0.15	0.164

fitness, S. pneumoniae D39V [2], one replicate
Details	first compound 0.015 µg/mL	first compound 0.03 µg/mL	first compound 0.06 µg/mL
partner 0.025 µg/mL	0.702	0.496	0.229
partner 0.2 µg/mL	0	0	0

CCC[C@@H]1C[C@@H](C(=O)N[C@@H]([C@H]2O[C@H](SC)[C@H](O)[C@@H](O)[C@H]2O)[C@H](C)Cl)N(C)C1 [Clindamycin] + C[C@@H](O)[C@H]1C(=O)N2C(C(=O)O)=C(SCCNC=N)C[C@H]12 [Imipenem]
Details	Bliss interaction score
B. subtilis 168	0.159
S. aureus DSM 20231	0.0276
S. aureus Newman	-0.0198
S. pneumoniae D39V [1]	-0.0804

fitness, S. pneumoniae D39V [2]
Details	first compound 0.0125 µg/mL	first compound 0.015 µg/mL	first compound 0.025 µg/mL	first compound 0.03 µg/mL	first compound 0.05 µg/mL	first compound 0.06 µg/mL
partner 0.005 µg/mL	0.753	–	0.5	–	0.213	–
partner 0.0065 µg/mL	–	0.843	–	0.628	–	0.176
partner 0.01 µg/mL	0.763	–	0.486	–	0.202	–
partner 0.013 µg/mL	–	0.877	–	0.744	–	0.46
partner 0.02 µg/mL	0.758	–	0.468	–	0.19	–
partner 0.026 µg/mL	–	0.824	–	0.644	–	0.299

CCC[C@@H]1C[C@@H](C(=O)N[C@@H]([C@H]2O[C@H](SC)[C@H](O)[C@@H](O)[C@H]2O)[C@H](C)Cl)N(C)C1 [Clindamycin] + Clc1ccc(COC(Cn2ccnc2)c2ccc(Cl)cc2Cl)c(Cl)c1 [Miconazole]
Details	Bliss interaction score
B. subtilis 168	0.0322
S. aureus DSM 20231	-0.0342
S. aureus Newman	-0.0596
S. pneumoniae D39V [1]	-0.0991

S. pneumoniae D39V [2]
Details	fitness
first compound 0.0125 µg/mL, partner 1.25 µg/mL	0.688
first compound 0.0125 µg/mL, partner 2.5 µg/mL	0.758
first compound 0.0125 µg/mL, partner 5 µg/mL	0.761
first compound 0.015 µg/mL, partner 1.073 µg/mL	0.944
first compound 0.015 µg/mL, partner 2.145 µg/mL	0.945
first compound 0.015 µg/mL, partner 4.29 µg/mL	0.906
first compound 0.025 µg/mL, partner 1.25 µg/mL	0.433
first compound 0.025 µg/mL, partner 2.5 µg/mL	0.485
first compound 0.025 µg/mL, partner 5 µg/mL	0.444
first compound 0.03 µg/mL, partner 1.073 µg/mL	0.772
first compound 0.03 µg/mL, partner 2.145 µg/mL	0.777
first compound 0.03 µg/mL, partner 4.29 µg/mL	0.665
first compound 0.05 µg/mL, partner 1.25 µg/mL	0.213
first compound 0.05 µg/mL, partner 2.5 µg/mL	0.235
first compound 0.05 µg/mL, partner 5 µg/mL	0.252
first compound 0.06 µg/mL, partner 4.29 µg/mL	0.33

CCC[C@@H]1C[C@@H](C(=O)N[C@@H]([C@H]2O[C@H](SC)[C@H](O)[C@@H](O)[C@H]2O)[C@H](C)Cl)N(C)C1 [Clindamycin] + O=C1CN(/N=C/c2ccc([N+](=O)[O-])o2)C(=O)N1 [Nitrofurantoin]
Details	Bliss interaction score
B. subtilis 168	-0.113
S. aureus DSM 20231	-0.0327
S. aureus Newman	-0.127
S. pneumoniae D39V [1]	-0.173

fitness, S. pneumoniae D39V [2]
Details	first compound 0.0125 µg/mL	first compound 0.015 µg/mL	first compound 0.025 µg/mL	first compound 0.03 µg/mL	first compound 0.05 µg/mL	first compound 0.06 µg/mL
partner 1.285 µg/mL	–	0.848	–	0.692	–	0.51
partner 2 µg/mL	0.583	–	0.302	–	0.0691	–
partner 2.57 µg/mL	–	0.886	–	0.708	–	0.445
partner 4 µg/mL	0.503	–	0.224	–	0.0581	–
partner 8 µg/mL	0.339	–	0.126	–	0.0351	–

S. pneumoniae D39V [2], partner 5.14 µg/mL, one replicate
Details	fitness
first compound 0.015 µg/mL	0.809
first compound 0.03 µg/mL	0.685
first compound 0.06 µg/mL	0.319

O=C(O[C@@H]1Cc2c(O)cc(O)cc2O[C@@H]1c1cc(O)c(O)c(O)c1)c1cc(O)c(O)c(O)c1 [EGCG] + CO[C@H]1/C=C/O[C@@]2(C)Oc3c(C)c(O)c4c(O)c(c(/C=N/N5CCN(C)CC5)c(O)c4c3C2=O)NC(=O)/C(C)=C\C=C\[C@H](C)[C@H](O)[C@@H](C)[C@@H](O)[C@@H](C)[C@H](OC(C)=O)[C@@H]1C [Rifampicin]
Details	Bliss interaction score
B. subtilis 168	0.0434
S. aureus DSM 20231	-0.0623
S. aureus Newman	-0.0254
S. pneumoniae D39V [1]	-0.0502

fitness, S. pneumoniae D39V [2]
Details	first compound 12.5 µg/mL	first compound 25 µg/mL	first compound 50 µg/mL
partner 0.025 µg/mL	0.923	0.925	≥ 1
partner 0.05 µg/mL	0.931	–	0.942
partner 0.1 µg/mL	–	–	0.496

S. pneumoniae D39V [2], partner 0.2 µg/mL, one replicate
Details	fitness
first compound 12.5 µg/mL	0
first compound 25 µg/mL	0
first compound 50 µg/mL	0

O=C(O[C@@H]1Cc2c(O)cc(O)cc2O[C@@H]1c1cc(O)c(O)c(O)c1)c1cc(O)c(O)c(O)c1 [EGCG] + C[C@@H](O)[C@H]1C(=O)N2C(C(=O)O)=C(SCCNC=N)C[C@H]12 [Imipenem]
Details	Bliss interaction score
B. subtilis 168	0.185
S. aureus DSM 20231	-0.0357
S. aureus Newman	0.0318
S. pneumoniae D39V [1]	0.0607

fitness, S. pneumoniae D39V [2]
Details	partner 0.005 µg/mL	partner 0.0065 µg/mL	partner 0.01 µg/mL	partner 0.013 µg/mL	partner 0.02 µg/mL	partner 0.026 µg/mL
first compound 12.5 µg/mL	0.952	0.863	0.875	0.78	0.9	0.563
first compound 25 µg/mL	0.985	0.833	0.971	0.959	0.842	–
first compound 50 µg/mL	0.912	0.896	0.939	0.799	≥ 1	0.899

O=C(O[C@@H]1Cc2c(O)cc(O)cc2O[C@@H]1c1cc(O)c(O)c(O)c1)c1cc(O)c(O)c(O)c1 [EGCG] + Clc1ccc(COC(Cn2ccnc2)c2ccc(Cl)cc2Cl)c(Cl)c1 [Miconazole]
Details	Bliss interaction score
B. subtilis 168	-0.0649
S. aureus DSM 20231	0.278
S. aureus Newman	0.167
S. pneumoniae D39V [1]	0.0773

fitness, S. pneumoniae D39V [2]
Details	partner 1.073 µg/mL	partner 1.25 µg/mL	partner 2.145 µg/mL	partner 2.5 µg/mL	partner 4.29 µg/mL	partner 5 µg/mL
first compound 12.5 µg/mL	0.956	0.913	≥ 1	0.805	0.824	0.858
first compound 25 µg/mL	0.983	≥ 1	≥ 1	0.923	0.834	0.89
first compound 50 µg/mL	0.987	0.952	0.984	0.86	0.98	0.933

O=C(O[C@@H]1Cc2c(O)cc(O)cc2O[C@@H]1c1cc(O)c(O)c(O)c1)c1cc(O)c(O)c(O)c1 [EGCG] + O=C1CN(/N=C/c2ccc([N+](=O)[O-])o2)C(=O)N1 [Nitrofurantoin]
Details	Bliss interaction score
B. subtilis 168	0.106
S. aureus DSM 20231	0.103
S. aureus Newman	0.0864
S. pneumoniae D39V [1]	0.0733

fitness, S. pneumoniae D39V [2]
Details	partner 1.285 µg/mL	partner 2 µg/mL	partner 2.57 µg/mL	partner 4 µg/mL	partner 8 µg/mL
first compound 12.5 µg/mL	0.914	0.858	0.938	0.832	0.558
first compound 25 µg/mL	0.949	0.878	0.924	0.891	0.571
first compound 50 µg/mL	0.954	≥ 1	0.951	0.802	0.566

S. pneumoniae D39V [2], partner 5.14 µg/mL, one replicate
Details	fitness
first compound 12.5 µg/mL	0.917
first compound 25 µg/mL	0.901
first compound 50 µg/mL	0.921
